Source: US20240300886A1, “ARYLCYCLOHEXYLAMINE DERIVATIVES AND THEIR USE IN THE TREATMENT OF PSYCHIATRIC DISORDERS” (GILGAMESH PHARMACEUTICALS, INC., priority 2021, published 2024)
Where two headings read alike, the source gives them in different places.

Key:
[1] = biological target: serotonin transporter (SERT) (Homo sapiens (Human), UniProt P31645); test: SERT competition radioligand binding ([3H]imipramine); details: Human recombinant (CHO cells), 2.0 nM [3H]imipramine
Protocol: Disclosed compounds were tested for their binding affinity at the serotonin transporter (SERT) using a competition radioligand binding assay (Eurofins Cerep). Assay conditions are described in Table 16 below.

[2] = Stability in liver microsomes (Example 21), CD-1 mouse; assay type: in vitro ADME; details: male, pH 7.4, CD-1 Mouse liver microsomes, 0.5 mg/mL protein
Protocol: (§1) General Procedure. Briefly, test compounds (final concentration 1 μM) were incubated in duplicate with liver microsomes from male animals of the indicated species (final protein concentration 0.5 mg/mL) in 50 mM sodium phosphate buffer (pH 7.4) with or without NADPH (1 mM). Total incubation volume was 500 μL. At 0, 5, 15, 30, and 60 min, aliquots of 50 μL were withdrawn, quenched with acetonitrile (150 μL), and analyzed for parent compound remaining using a fit-for-purpose LC-MS/MS method. Intrinsic clearance and half-life were calculated. Clearance values below zero were rounded to zero.

[3] = Stability in liver microsomes (Example 21), SD rat; assay type: in vitro ADME; details: male, pH 7.4, 0.5 mg/mL protein
Protocol: as §1

[4] = Stability in liver microsomes (Example 21), beagle dog; assay type: in vitro ADME; details: male, pH 7.4, 0.5 mg/mL protein
Protocol: as §1

[5] = Stability in liver microsomes (Example 21), Gottingen minipig; assay type: in vitro ADME; details: male, pH 7.4, 0.5 mg/mL protein
Protocol: as §1

[6] = Stability in liver microsomes (Example 21), cynomolgus monkey; assay type: in vitro ADME; details: male, pH 7.4, 0.5 mg/mL protein
Protocol: as §1

[7] = biological target: recombinant human NMDA receptor (GRIN1/GRIN2B) (Homo sapiens (Human), UniProt Q05586+Q13224); test: Unblocking kinetics at the NMDA receptor in Xenopus laevis oocytes (two-electrode voltage clamp); assay type: cell-based; details: compounds applied at 3×IC50, -70 mV, n ≥ 5
Protocol: Compounds 2R, 2S, and 2-(2-fluorophenyl)-2-(methylamino)cyclohexan-1-one 2-F-DCK were tested for unblocking kinetics at the NMDA receptor in Xenopus laevis oocytes expressing recombinant human NMDA receptor (GRIN1/GRIN2B) (Table 22).
Experimental Procedure. Oocytes were harvested from adult Xenopus laevis and incubated in 96 well plates for two to four days prior to recordings. Plasmids containing cDNA encoding for human NMDA receptor subunits GRIN1 and GRIN2B were transcribed using the mMessage mMachine T7 transcription kit (Ambion, USA). The Roboocyte automated injection system was used for injection of cRNA coding for hNMDA receptor subunits at a concentration of 100 ng/μL per subunit. Oocytes were clamped to a holding potential of −70 mV and induced currents after compound application were sampled at 200 Hz at room temperature. Agonist induced currents were recorded with a two-electrode voltage clamp. To determine the unblocking kinetics, glutamate and glycine (3 and 10 μM, respectively) were applied to the oocytes and the current recorded for 90 s. Then, compounds were applied at 3×IC50 for 120 s and the currents recorded.

[8] = Comparative oral pharmacokinetics of 2R, 2S and 2-F-DCK in mice; assay type: in vivo, C57BL/6 mice; details: 10 mg/kg po; for half-life: read-out: t1/2 (po)
Protocol: Animals. Male C57BL/6 mice were used in these studies. Aminals were randomly assigned to treatment groups and were fasted for 4 h before dosing.
Drugs. Test compounds were dissolved in a vehicle consisting of normal saline, They were then administered orally (po) at a dose of 10 mg/kg (calculated based on freebase) and at a volume of 10 mL/kg body weight.
Sample Collection and Bioanalysis. Blood samples (approximately 60 μL) were collected under light isoflurane anesthesia (Surgivet®) from the retro orbital plexus at 0.08, 0.25, 0.5, 1, 2, 4, 8, and 24 h (4 animals per time point). Immediately after blood collection, plasma was harvested by centrifugation at 4,000 rpm for 10 min at 4° C. and samples were stored at −70±10° C. until bioanalysis. Following blood collection, animals were immediately sacrificed, the abdominal vena-cava was cut open, and the whole body was perfused from the heart using 10 mL of normal saline, and brain samples were collected from all animals. After isolation, brain samples were rinsed three times in ice-cold normal saline (for 5-10 seconds/rinse using ˜5-10 mL normal saline in disposable petri dish for each rinse) and dried on blotting paper. Brain samples were homogenized using ice-cold phosphate-buffered saline (pH 7.4). Total homogenate volume was three times the tissue weight. All homogenates were stored at −70±10° C. until bioanalysis. For bioanalysis, 25 μL aliquots of plasma/brain study samples or spiked plasma/brain calibration standards were added to individual pre-labeled micro-centrifuge tubes followed by 100 μL of an internal standard solution (glipizide, 500 ng/mL in acetonitrile) except for blanks, where 100 μL of acetonitrile was added. Samples were vortexed for 5 minutes and then centrifuged for 10 minutes at 4,000 rpm at 4° C. Following centrifugation, 100 μL of each clear supernatant was transferred to a 96 well plate and analyzed with a fit-for-purpose LC-MS/MS method, with authentic samples of each analyte used for calibration and identification.
Data Analysis. Pharmacokinetic parameters were estimated using the non-compartmental analysis tool of Phoenix® WinNonlin software (Ver 8.0).

recombinant human NMDA receptor (GRIN1/GRIN2B), sequence (Q13224 whole entry, looked up, other chains not shown): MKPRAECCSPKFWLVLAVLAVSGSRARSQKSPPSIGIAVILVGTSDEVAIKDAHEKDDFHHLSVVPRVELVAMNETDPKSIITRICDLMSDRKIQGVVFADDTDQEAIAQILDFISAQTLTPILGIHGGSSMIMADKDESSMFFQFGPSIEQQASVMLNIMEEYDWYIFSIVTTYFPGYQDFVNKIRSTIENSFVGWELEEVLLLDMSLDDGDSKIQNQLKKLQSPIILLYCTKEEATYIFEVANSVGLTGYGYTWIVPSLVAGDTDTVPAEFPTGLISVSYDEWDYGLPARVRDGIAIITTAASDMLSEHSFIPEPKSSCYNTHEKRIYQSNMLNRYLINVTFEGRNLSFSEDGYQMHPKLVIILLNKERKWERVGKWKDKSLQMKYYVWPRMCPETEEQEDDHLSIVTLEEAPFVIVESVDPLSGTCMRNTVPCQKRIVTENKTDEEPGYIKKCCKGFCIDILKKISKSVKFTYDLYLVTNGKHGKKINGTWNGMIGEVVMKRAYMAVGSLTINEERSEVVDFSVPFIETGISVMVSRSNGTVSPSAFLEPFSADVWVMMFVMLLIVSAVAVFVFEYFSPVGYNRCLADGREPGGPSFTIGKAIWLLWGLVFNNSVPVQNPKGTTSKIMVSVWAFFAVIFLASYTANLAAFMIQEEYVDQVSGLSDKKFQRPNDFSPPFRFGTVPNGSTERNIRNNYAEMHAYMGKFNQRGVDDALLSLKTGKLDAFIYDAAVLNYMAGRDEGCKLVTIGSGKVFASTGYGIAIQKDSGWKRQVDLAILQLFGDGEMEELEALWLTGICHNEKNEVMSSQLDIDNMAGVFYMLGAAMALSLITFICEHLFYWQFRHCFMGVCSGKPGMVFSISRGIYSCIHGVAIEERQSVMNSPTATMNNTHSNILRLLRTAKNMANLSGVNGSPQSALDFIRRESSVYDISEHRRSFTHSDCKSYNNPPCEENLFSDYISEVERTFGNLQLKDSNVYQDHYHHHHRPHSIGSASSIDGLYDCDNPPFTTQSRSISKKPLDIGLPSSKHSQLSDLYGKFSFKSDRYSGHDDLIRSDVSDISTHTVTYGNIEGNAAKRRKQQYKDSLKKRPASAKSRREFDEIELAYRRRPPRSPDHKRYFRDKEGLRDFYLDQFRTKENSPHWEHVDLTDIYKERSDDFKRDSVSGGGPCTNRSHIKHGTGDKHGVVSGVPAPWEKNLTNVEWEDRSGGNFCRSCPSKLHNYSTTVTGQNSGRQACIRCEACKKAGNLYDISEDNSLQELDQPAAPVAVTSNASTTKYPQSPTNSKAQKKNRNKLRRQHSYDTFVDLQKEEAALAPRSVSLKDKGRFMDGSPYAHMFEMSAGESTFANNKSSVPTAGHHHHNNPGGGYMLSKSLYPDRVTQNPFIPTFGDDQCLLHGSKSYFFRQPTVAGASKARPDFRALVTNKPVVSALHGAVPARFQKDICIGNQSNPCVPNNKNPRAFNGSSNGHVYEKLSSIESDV

## CNC1(c2ccccc2F)CCCCC1=O (stereo not shown) [Compound 2-F-DCK, 2-(2-fluorophenyl)-2-(methylamino)cyclohexan-1-one, reference compound]
[1]
  Ki: 40 µM
[2]
  microsomal CLint at 1 μM: 10.9 µL/min/mg
[3]
  microsomal CLint at 1 μM: 111 µL/min/mg
[4]
  microsomal CLint at 1 μM: 30 µL/min/mg
[5]
  microsomal CLint at 1 μM: 56.2 µL/min/mg
[6]
  microsomal CLint at 1 μM: 212 µL/min/mg
[7]
  Unblocking T1/2 ± SEM: 1.44 ± 0.21 min
[8]; male, C57BL/6, mouse brain
  Cmax: 1670 ng/g
  half-life: 41 min
[8]; male, C57BL/6, mouse plasma
  Cmax: 1960 ng/mL
  half-life: 69 min
[8]; male, C57BL/6, mouse plasma, read-out: AUC0-last (po) (converted)
  AUC(0-t): 1150 ng·h/mL
[8]; mouse brain
  AUC0-last (po): 59119 ng·min/g
